Reference: patent publication US20080090836A1, “Pyrazole Compounds Useful In The Treatment Of Inflammation” (priority 2004, published 2008)

Target: T1, purified human 15-lipoxygenase (Homo sapiens, UniProt P16050)
T1 sequence (P16050 1-662): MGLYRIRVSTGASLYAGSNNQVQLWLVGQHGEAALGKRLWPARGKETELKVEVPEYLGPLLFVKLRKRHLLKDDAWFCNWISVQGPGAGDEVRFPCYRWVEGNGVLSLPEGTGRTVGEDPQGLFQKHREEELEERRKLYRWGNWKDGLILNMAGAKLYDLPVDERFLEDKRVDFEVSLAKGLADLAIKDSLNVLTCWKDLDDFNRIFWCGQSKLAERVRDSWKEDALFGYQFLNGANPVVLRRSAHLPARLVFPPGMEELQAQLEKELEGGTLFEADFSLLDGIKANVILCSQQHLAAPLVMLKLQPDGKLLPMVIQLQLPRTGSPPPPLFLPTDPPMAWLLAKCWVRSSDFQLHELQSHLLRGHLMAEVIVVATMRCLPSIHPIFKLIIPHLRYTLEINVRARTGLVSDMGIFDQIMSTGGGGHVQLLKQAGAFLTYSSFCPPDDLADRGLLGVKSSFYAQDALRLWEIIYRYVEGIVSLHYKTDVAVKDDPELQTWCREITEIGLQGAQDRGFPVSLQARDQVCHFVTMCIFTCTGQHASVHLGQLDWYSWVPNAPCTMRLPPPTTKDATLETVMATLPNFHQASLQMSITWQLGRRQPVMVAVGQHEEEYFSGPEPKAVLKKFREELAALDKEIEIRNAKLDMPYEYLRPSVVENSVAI
Experiment: 15-lipoxygenase inhibition assay (oxidation of arachidonic acid, product measured by reverse phase HPLC)
Format: biochemical
Details: arachidonic acid substrate, room temperature, PBS pH 7.4
Description: The assay employed takes advantage of the ability of lipoxygenases to oxidize polyunsaturated fatty acids, containing a 1,4-cis-pentadiene configuration, to their corresponding hydroperoxy or hydroxyl derivatives. In this particular assay, the lipoxygenase was a purified human 15-lipoxygenase and the fatty acid was arachidonic acid. The assay is performed at room temperature (20-22° C.) and the following are added to each well in a 96-well microliter plate:
a) 35 μL phosphate buffered saline (PBS) (pH 7.4);
b) inhibitor (i.e. compound) or vehicle (0.5 μl DMSO);
c) 10 μL of a 10× concentrated solution of 15-lipoxygenase in PBS. The plates are incubated for 5 minutes at room temperature;
The plate is then incubated for 10 minutes at room temperature;
e) the enzymatic reaction is terminated by the addition of 100 μl methanol; and
f) the amount of 15-hydroperoxy-eicosatetraenoic acid or 15-hydroxyeicosatetraenoic acid is measured by reverse phase HPLC.

IC50 [µM] | SMILES
3.71 | Cc1cn(C(=O)NCCc2cccs2)nc1C(=O)Nc1ccc(F)cc1Cl [Example 4, 4-Methylpyrazole-1,3-dicarboxylic acid 3-[(2-chloro-4-fluorophenyl)-amide] 1-[(2-thien-2-ylethyl)amide]]
8.51 | CCOC(=O)CNC(=O)n1cc(C)c(C(=O)Nc2ccc(F)cc2Cl)n1 [Example 17, {[3-(2-Chloro-4-fluorophenylcarbamoyl)-4-methylpyrazole-1-carbonyl]-amino}acetic acid ethyl ester]
0.71 | Cc1cc(C(=O)Nc2ccc(F)cc2Cl)nn1C(=O)NCCc1cccs1 [Example 30, 5-Methylpyrazole-1,3-dicarboxylic acid 3-[(2-chloro-4-fluorophenyl)-amide] 1-[(2-thien-2-ylethyl)-amide]]
0.63 | CCOC(=O)CNC(=O)n1nc(C(=O)Nc2ccc(F)cc2Cl)cc1C [Example 31, {[3-(2-Chloro-4-fluorophenylcarbamoyl)-5-Methylpyrazole-1-carbonyl]-amino}-acetic acid ethyl ester]
0.66 | Cc1cc(C(=O)Nc2ccc(F)cc2Cl)nn1C(=O)NC1CCN(C(=O)OCc2ccccc2)CC1 [Example 32, 4-{[3-(2-Chloro-4-fluorophenylcarbamoyl)-5-methylpyrazole-1-carbonyl]amino}-piperidine-1-carboxylic acid benzyl ester]
5.6 | C=CCNC(=O)n1nc(C(=O)Nc2ccc(F)cc2Cl)cc1C [Example 33, 5-Methylpyrazole-1,3-dicarboxylic acid 1-allylamide 3-[(2-chloro-4-fluorophenyl)amide]]
5.87 | COc1ccc(S(=O)(=O)n2nc(C(=O)Nc3ccc(F)cc3Cl)cc2C)cc1 [Example 51, 1-(4-Methoxy-benzenesulfonyl)-5-methylpyrazole-3-carboxylic acid (2-chloro-4-fluorophenyl)amide]

SMILES | IC50 [µM]
CCCCOc1ccc(S(=O)(=O)n2nc(C(=O)Nc3ccc(F)cc3Cl)cc2C)cc1 [Example 50, 1-(4-Butoxy-benzenesulfonyl)-5-methylpyrazole-3-carboxylic acid (2-chloro-4-fluorophenyl)amide] | 8.33
